Test results reported in PubChem BioAssay (NCI).
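Briefly, cells in 96-well plates were exposed to five compound concentrations for 48 h, and endpoints were estimated by linear interpolation. At the TGI there is no net growth.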

Legend:
Experiment in all cases: NCI-60 cell line screen, 48 h
HOP-62 NSCLC = system: HOP-62 NSCLC
OVCAR-8 ovarian = system: OVCAR-8 ovarian
RPMI-8226 leukemia = system: RPMI-8226 leukemia
K-562 leukemia = system: K-562 leukemia
SNB-19 CNS = system: SNB-19 CNS
SW-620 colon = system: SW-620 colon
LOX IMVI melanoma = system: LOX IMVI melanoma
CAKI-1 renal = system: CAKI-1 renal
EKVX NSCLC = system: EKVX NSCLC
HL-60(TB) leukemia = system: HL-60(TB) leukemia

SMILES | TGI (HOP-62 NSCLC) [µM] | TGI (OVCAR-8 ovarian) [µM] | TGI (RPMI-8226 leukemia) [µM] | TGI (K-562 leukemia) [µM] | TGI (SNB-19 CNS) [µM] | TGI (SW-620 colon) [µM] | TGI (LOX IMVI melanoma) [µM] | TGI (CAKI-1 renal) [µM] | TGI (EKVX NSCLC) [µM] | TGI (HL-60(TB) leukemia) [µM]
CCn1nc(-c2ccccc2)c2c1N(C)c1ccccc1-n1c(-c3ccccc3)nnc1-2 | 32.2 | 62.3 | > 100 | > 100 | 32.4 | 29.6 | 33 | – | – | –
CN(C)c1ccc(/C=N/n2c(-c3ccccc3)nc3ccccc3c2=O)cc1 | > 100 | > 100 | > 100 | – | > 100 | > 100 | > 100 | > 100 | > 100 | > 100
COC(=O)C1=COC(C)C2C[n+]3ccc4c([nH]c5ccccc54)c3CC12 (stereo not drawn) | > 100 | > 100 | > 100 | > 100 | > 100 | > 100 | > 100 | > 100 | > 100 | > 100
CC(=O)OC(CC(C)C)P1(=O)N(CC(C)(C)C)[C@@H]2CCCC[C@H]2N1CC(C)(C)C (stereo partly drawn) | 29.9 | 21.9 | 15.3 | 23.9 | 21.9 | 29 | 25 | 26 | 23.5 | 23.1
O=c1[nH]c(=S)c2cc3c(=S)[nH]c(=O)n(CCC(c4ccccc4)(c4ccccc4)c4ccccc4)c3nc2n1CCC(c1ccccc1)(c1ccccc1)c1ccccc1 | > 100 | – | > 100 | > 100 | > 100 | – | – | > 100 | > 100 | –
O=c1c2ncn(C3CCCCO3)c2n(-c2ccccc2)c(=S)n1-c1ccccc1 (stereo not drawn) | 29.9 | > 100 | > 100 | > 100 | > 69.4 | > 100 | > 100 | > 97.7 | > 87.9 | > 100
O=C(O)CS(=O)c1ccc2c3c(cccc13)C(=O)c1ccccc1-2 (stereo not drawn) | > 100 | > 100 | > 100 | > 100 | > 100 | > 100 | > 100 | > 100 | > 100 | > 100
COc1cc2c(cc1OC)C1=Cc3ccc(OC)c(OC)c3C(C#N)N1CC2 (stereo not drawn) | > 100 | – | 76.3 | – | > 100 | > 100 | – | > 100 | > 100 | > 100
O=c1[nH]nc(-c2ccc([N+](=O)[O-])cc2)n1/N=C/c1ccc([N+](=O)[O-])cc1 | > 100 | > 100 | > 100 | > 100 | > 100 | > 100 | 34.4 | > 100 | > 100 | > 100
c1ccc2c(c1)nc1n2CCNC1 | > 100 | > 100 | > 100 | > 100 | > 100 | > 100 | > 100 | > 100 | > 100 | > 100
COC(=O)c1c(O)ccc2c1c1c(n2Cc2ccc(OC)cc2)C(=O)c2ccccc2C1=O | 33.2 | 11.7 | 1.9 | 20 | > 100 | 45.6 | 23.2 | 86.4 | > 100 | 12.1
N#Cc1nc(C(F)(F)F)oc1N | > 100 | > 100 | > 100 | > 100 | > 100 | > 100 | > 100 | > 100 | > 100 | > 100
NNC(=Nc1ccccc1)SCc1ccccc1 | > 100 | > 100 | > 100 | > 100 | > 100 | > 100 | > 100 | > 100 | – | > 100
N#CC(c1nc2ccccc2s1)c1nc(Cl)ncc1Br (stereo not drawn) | > 100 | > 100 | 81.1 | – | > 100 | > 100 | > 100 | > 100 | > 100 | –
COc1ccc(/C=C2\Sc3nnc(C)n3N=C2c2cc(F)c(Cl)cc2Cl)cc1OC | 33.3 | 37.9 | 11.1 | 19.5 | 11.8 | > 100 | 31.4 | 23.7 | 22.7 | 96.4
COc1ccc2c(c1)c(=O)c1c(NCCCN(C)CCCNc3ccc4c(=O)n(CCN(C)C)c(=O)n5c6ccc(OC)cc6c(=O)c3c45)ccc3c(=O)n(CCN(C)C)c(=O)n2c31 | 1.04 | 2.65 | 0.176 | 1.11 | 2.17 | 0.752 | 0.161 | 0.784 | 1.3 | 0.963
Cc1cccc(/C=N/NC(=S)N2CCCCCC2)n1 | 1.01 | 0.428 | 0.374 | > 100 | > 100 | > 100 | 17 | 8.86 | 9.32 | 0.241
CCOC(=O)c1[nH]cnc1/N=N/N(C)N | > 100 | > 100 | > 100 | – | – | > 100 | > 100 | 61.2 | > 100 | 68.6
CC(C)=NNc1cnnc2ccc([N+](=O)[O-])cc12 | – | > 100 | > 100 | – | > 100 | > 100 | – | > 100 | > 100 | 43.2
OCc1c2c(cc3c1CC1(C3)Cc3cc4c(c(CO)c3C1)CCC4)CCC2 | 29.6 | 38 | 47.5 | 21.9 | – | – | 28.7 | – | 30.5 | 18.4
Nc1nc2cc(CNc3ccc(C(=O)O)cc3)ccc2nc1-c1ccccc1 | > 100 | > 100 | > 100 | > 100 | > 100 | > 100 | > 100 | – | – | > 100
Cc1ccc2ccc(=O)oc2c1 | > 100 | > 100 | > 100 | > 100 | – | > 100 | > 100 | > 100 | > 100 | > 100
CC1=NC2(CCCCC2)N(Cl)C(=O)C1SC#N (stereo not drawn) | 47.8 | 32.7 | – | 41.4 | 49.9 | 62.6 | 35.4 | – | 31.9 | > 100
